Key:
[1] = system: paclitaxel induced peripheral neuropathy; assay: Reversal of allodynia induced by paclitaxel in mice (s.c. or p.o., von Frey frequency method); type: in vivo, c57bl/6 mice; details: Mus musculus; for inhibition in vivo at 3 mg/kg: po, 1 h, 3 mg/kg p.o., tested 60 min after dosing, read-out: Screen @ 3 mg/kg po (% MPE); for inhibition in vivo at 1 mg/kg: sc, 0.5 h, 1 mg/kg s.c., tested 30 min after dosing, read-out: Screen @ 1 mg/kg sc (% MPE)
Method in brief: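 Neuropathy was induced in mice by paclitaxel (6 mg/kg i.p., days 1, 3, 5, 7) or oxaliplatin (4 mg/kg i.p., days 1-5), with re-testing about 14 days later. Compounds were given s.c. (tested at 30 min) or p.o. (tested at 60 min; paclitaxel only). A 0.4 g von Frey filament was applied ten times per paw, and % non-response was converted to % MPE.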

[2] = biological target: human sphingosine-1-phosphate receptor 1 (S1P1) (Homo sapiens (Human), UniProt P21453); assay: β-Arrestin2 recruitment assay (PathHunter), S1P1 CHO-K1 cells; type: cell-based; details: for hS1P1 B-arrestin2 pEC50: β-arrestin2 recruitment, S1P1 CHO-K1 cells; for Emax: CHO-K1, read-out: hS1P1 B-arrestin2 SPAN
human sphingosine-1-phosphate receptor 1 (S1P1), sequence (P21453 whole entry, looked up, the tested form may be a part): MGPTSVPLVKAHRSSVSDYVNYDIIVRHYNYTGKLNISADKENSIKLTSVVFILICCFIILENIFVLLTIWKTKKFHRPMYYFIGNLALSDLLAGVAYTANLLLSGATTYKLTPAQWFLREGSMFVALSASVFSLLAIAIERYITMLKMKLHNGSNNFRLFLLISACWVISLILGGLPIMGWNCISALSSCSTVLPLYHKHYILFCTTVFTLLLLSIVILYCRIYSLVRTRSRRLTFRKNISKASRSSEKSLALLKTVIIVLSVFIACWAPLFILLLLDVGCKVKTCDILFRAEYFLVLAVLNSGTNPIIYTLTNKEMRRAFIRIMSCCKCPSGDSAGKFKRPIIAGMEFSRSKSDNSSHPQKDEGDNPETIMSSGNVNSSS
human sphingosine-1-phosphate receptor 1 (S1P1), sequence (P32121 whole entry partner, looked up, the tested form may be a part): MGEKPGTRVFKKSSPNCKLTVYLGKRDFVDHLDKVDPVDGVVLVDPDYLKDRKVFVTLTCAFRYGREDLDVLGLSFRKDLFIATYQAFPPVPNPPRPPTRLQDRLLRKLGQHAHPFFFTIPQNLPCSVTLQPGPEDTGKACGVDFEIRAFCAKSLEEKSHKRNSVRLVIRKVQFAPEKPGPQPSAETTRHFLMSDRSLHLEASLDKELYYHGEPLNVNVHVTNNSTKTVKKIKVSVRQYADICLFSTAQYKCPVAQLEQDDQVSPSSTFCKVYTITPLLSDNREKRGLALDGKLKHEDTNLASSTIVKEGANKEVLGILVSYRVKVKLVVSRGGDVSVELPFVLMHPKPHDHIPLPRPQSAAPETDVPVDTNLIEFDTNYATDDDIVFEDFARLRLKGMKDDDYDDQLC
Method in brief: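 Enzyme-fragment complementation read-out: agonist-driven β-arrestin2 binding to ProLink-tagged human S1P1 in stable CHO-K1 cells restores β-galactosidase, measured 1 h at room temperature after a 60 min 37° C. compound incubation. Potency as pEC50, efficacy relative to fingolimod (SPAN).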

[3] = biological target: human sphingosine-1-phosphate receptor 2 (S1P2) (Homo sapiens (Human), UniProt O95136); assay: Inositol monophosphate production (IP-one TB kit), S1P2 CHO-K1 cells; type: cell-based; details: for hS1P2 IP-one pEC50: inositol monophosphate accumulation; for Emax: CHO-K1, efficacy normalized to CYM5520, read-out: hS1P2 IP-one SPAN
human sphingosine-1-phosphate receptor 2 (S1P2), sequence (O95136 whole entry): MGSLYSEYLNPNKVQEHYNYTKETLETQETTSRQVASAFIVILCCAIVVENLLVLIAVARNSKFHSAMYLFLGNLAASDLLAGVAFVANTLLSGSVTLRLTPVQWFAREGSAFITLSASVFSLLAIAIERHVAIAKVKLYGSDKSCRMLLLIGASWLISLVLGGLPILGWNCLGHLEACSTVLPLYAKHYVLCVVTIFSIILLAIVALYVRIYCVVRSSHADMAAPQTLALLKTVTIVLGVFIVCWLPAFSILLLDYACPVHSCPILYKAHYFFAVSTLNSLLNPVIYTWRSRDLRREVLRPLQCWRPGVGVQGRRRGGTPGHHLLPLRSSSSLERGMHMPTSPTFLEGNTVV
Method in brief: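 Stable CHO-K1 cells expressing EA-β-arrestin2 and Prolink-tagged human S1P2, plated overnight, then exposed to compounds in IP-one stimulation buffer for 60 min at 37 °C. IP1 read by TR-FRET after 1 h at RT. Efficacy (SPAN) normalized to CYM5520; potency as pEC50.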

[4] = efficacy (SPAN) normalized to fingolimod

SMILES	inhibition in vivo at 3 mg/kg [1] [%]	inhibition in vivo at 1 mg/kg [1] [%]	hS1P1 B-arrestin2 SPAN [2, 4]	hS1P1 B-arrestin2 pEC50 [2]	hS1P2 IP-one pEC50 [3]	Emax [2, 4] [%]	Emax [3] [%]
COc1ccc(-c2noc(-c3ccc4c(c3)nnn4CC(C)(C)O)n2)c(C)c1 [Compound 26, 1-{5-[3-(4-methoxy-2-methylphenyl)-1,2,4-oxadiazol-5-yl]-1H-1,2,3-benzotriazol-1-yl}-2-methylpropan-2-ol]	< 50	< 50	<75	>5	<5.0		
Cc1ccccc1-c1nc(-c2ccc3c(c2)nnn3C(C)C)no1 [Compound 99, 3-(1-isopropyl-1H-benzo[d][1,2,3]triazol-5-yl)-5-(o-tolyl)-1,2,4-oxadiazole]	> 50	> 50		>5	<5.0		
CCC1(CC)CC(=O)c2cc(-c3nc(-c4cccnc4)no3)ccc2O1 [Compound 103, 2,2-diethyl-6-[3-(pyridin-3-yl)-1,2,4-oxadiazol-5-yl]-3,4-dihydro-2H-1-benzopyran-4-one]	> 50	> 50		>5	<5.0	> 75	< 50
CCC1(CC)CC(=O)c2cc(-c3nc(-c4cccnc4OC)no3)ccc2O1 [Compound 147, 2,2-diethyl-6-(3-(2-methoxypyridin-3-yl)-1,2,4-oxadiazol-5-yl)chroman-4-one]		> 50		>5	<5.0	> 75	< 50
CCC1(CC)CC(=O)c2cc(-c3nc(-c4ccncc4OC)no3)ccc2O1 [Compound 212, 2,2-diethyl-6-(3-(3-methoxypyridin-4-yl)-1,2,4-oxadiazol-5-yl)chroman-4-one]		> 50		>5	<5.0	< 75	< 50
COc1ccccc1-c1nc(-c2ccc3c(c2)nnn3C(C)C)no1 [Compound 287, 3-(1-isopropyl-1H-benzo[d][1,2,3]triazol-5-yl)-5-(2-methoxyphenyl)-1,2,4-oxadiazole]		< 50		>5	<5.0		
Cc1ccccc1-c1noc(-c2ccc3c(c2)nnn3C(C)C)n1 [Compound 293, 5-[3-(2-methylphenyl)-1,2,4-oxadiazol-5-yl]-1-(propan-2-yl)-1H-1,2,3-benzotriazole]		> 50		>5	<5.0	> 75	< 50
CC(C)n1nnc2cc(-c3nc(-c4cccc5c4OCCC5)no3)ccc21 [Compound 304, 3-chroman-8-yl-5-(1-isopropylbenzotriazol-5-yl)-1,2,4-oxadiazole]		> 50		>5	<5.0		
CC(C)n1nnc2cc(-c3nc(-c4ccncc4C(F)(F)F)no3)ccc21 [Compound 455, 1-(propan-2-yl)-5-{3-[3-(trifluoromethyl)pyridin-4-yl]-1,2,4-oxadiazol-5-yl}-1H-1,2,3-benzotriazole]	> 50			>5	<5.0	> 75	< 50
CCC1(CC)CC(=O)c2cc(-c3nc(-c4cn[nH]c4)no3)ccc2O1 [Compound 469, 6-(3-(1H-pyrazol-4-yl)-1,2,4-oxadiazol-5-yl)-2,2-diethylchroman-4-one]	> 50			>5		> 75	

From patent US11912693B2, “Compounds for modulating S1P1 activity and methods of using the same” (TREVENA, INC., priority 2017, dated 2024)
